Reference: paper PMC8202924, “Emodepside targets SLO-1 channels of Onchocerca ochengi and induces broad anthelmintic effects in a bovine model of onchocerciasis” (PLoS Pathogens, 2021)
Read-outs that look alike come from different tables or passages of the source.

How the values were obtained:
[1] = Blood glucose in the main trial, test-strip assay; assay type: in vivo, zebu (Ngaoundéré Gudali) cattle (B. t. indicus)
Description: Glucose concentrations were measured pre- and post-chemotherapy using venous blood, which was analyzed in a test-strip assay (MediTouch 2 blood glucose monitor, Medisana, Neuss, Germany). Both individual animal and group blood-glucose concentrations were compared with a standard reference range for cattle (45–75 mg/dL [58]). To evaluate group-level effects, 95% confidence intervals (CI) were calculated using the group mean, SD and sample number for each group at each respective timepoint, with changes in blood glucose concentration considered significant if either the lower CI exceeded the upper limit of the standard reference range, or the upper CI was below the lower limit of the standard reference range.

[2] = for Rumen contraction: over four days after treatment, from 1 contraction/min
Excerpt: Four non-pregnant, non-lactating cows naturally infected with O. ochengi were purchased from farmers in the Vina Division of the Adamawa Region and acclimatized at the IRAD Wakwa site for two weeks before the start of the trial. Cows were 3–6 years old and weighed 185–300 kg. They were housed in a 35 m^2 enclosure at night and fed with cotton seed cake (2 g/kg bodyweight) in the morning before grazing them on a 1 ha Brachiaria ruziziensis paddock between 9 am and 4 pm daily. Water and salt were supplied ad libitum when housed. Each cow was randomly allocated (by ear-tag number using an online research randomizer [available at https://www.randomizer.org]) to receive a single low dose of emodepside 0.15 mg/kg, a single high dose of emodepside 0.75 mg/kg, a low dose twice (emodepside 0.15 mg/kg on two consecutive days), or vehicle only (solketal). Prior to treatment, the cows were sedated with xylazine hydrochloride (Rompun). Verum or vehicle was administered IV into the jugular vein using a perfusion apparatus (Braun Perfusor Space) following an identical protocol to the Holstein pre-study described above.

[3] = system: Onchocerca ochengi adult female worms; assay: MTT assay for metabolic activity of worms from nodules; assay type: in vivo; settings: MRSM, 4 mg/kg every other day for 3 days; day 550
Description: Worms from a second unfixed nodule (at the same timepoints listed above) were subjected to a 3-(4,5-dimethylthiazol-2-yl)-2,5-diphenyltetrazolium bromide (MTT) assay for metabolic activity, in which the insoluble formazan product was dissolved in DMSO and quantified colorimetrically at 620 nm in a microplate reader (model LT4500, Labtech, Heathfield, East Sussex, UK). Finally, dermal microfilarial densities were determined by incubation of skin biopsies (in triplicate per animal per timepoint) and normalized to 100 mg skin [59].

[4] = system: Onchocerca ochengi adult worms in nodules; assay: Histopathology of nodules, worm integrity scores after Striebel; assay type: in vivo; set-up: key to Cumulative histopathological score, representative section: sum of 5 organ grades: 5 = healthy, 15 = max damage, 16 = debris/none; settings: MRSM
Excerpt: Nodules for histopathology (n = 72) were collected up to day 290, after which few were available in the melarsomine (MRSM) group. For consistency, nodules were taken from the same three animals in each experimental group at each timepoint. Formalin-fixed nodules were embedded in paraffin, sectioned, and stained with hematoxylin and eosin or Giemsa as previously described or with Lendrum’s carbol chromotrope to specifically stain eosinophils.
Histological sections of nodules were scored by a single observer blinded to treatment group using the form proposed by Striebel, which was developed based on observations of O. volvulus (human) and Onchocerca gibsoni (bovine) nodules. In the current study, O. ochengi nodules were graded by applying a similar system in which the integrity of five structures or organs (cuticle, hypodermis, longitudinal muscle, pseudocoelomic cavity and gut) were classified through microscopical assessment of specific anatomical features (e.g., vacuoles in the hypodermis or host cells visible in the pseudocoelomic cavity) according to the categories in Table A in S1 Text. These grades were used to assign a pathology score for each aspect of parasite anatomy examined. Scores for all five structures or organs were then added together to produce a cumulative overall score, with a minimum score of 5 for parasite sections judged to be healthy across all five structures or organs. Since parasite sections showing extensive damage across all five anatomical regions could score a maximum of 15, sections containing cuticular debris only, or where parasites were unidentifiable in the section, were allocated a total score of 16. Where sections of male worms were present in the nodule these were scored separately to the females. Some sections contained more than one conjoined nodule. In these cases, females were also scored and recorded individually.
The effect of different treatments relative to either (a) no treatment controls or (b) pre-treatment observations of parasite integrity was analyzed using linear mixed effects models with the nonlinear mixed effects model package in R [63, 64]. Overall scores for parasite integrity were modelled as the response variable compared with (a) treatment groups for each timepoint and (b) different timepoints for each respective treatment group. In both cases, animal identity was modelled as a random effect to account for repeat observations taken from the same individual, and results were adjusted using a post-hoc Bonferroni correction for multiple comparisons. Similarly, to assess the effect of different treatments on cellular infiltrates over time, total PMN or eosinophil counts per high-power field and eosinophils as a percentage of the total PMN population were each modelled as […] variables compared with (a) treatment groups for each timepoint and (b) different timepoints for each respective treatment group.

[5] = 4 mg/kg every other day for 3 days, day 90
[6] = 4 mg/kg every other day for 3 days, day 180
[7] = 4 mg/kg every other day for 3 days, day 290

## CC(C)C[C@H]1C(=O)O[C@H](Cc2ccc(N3CCOCC3)cc2)C(=O)N(C)[C@@H](CC(C)C)C(=O)O[C@H](C)C(=O)N(C)[C@@H](CC(C)C)C(=O)O[C@H](Cc2ccc(N3CCOCC3)cc2)C(=O)N(C)[C@@H](CC(C)C)C(=O)O[C@H](C)C(=O)N1C [emodepside]
[1]; EMO1H, 0.75 mg/kg single dose, at 30 min, 2 and 6 h
  Blood glucose, group-level 95% CI vs reference range 45–75 mg/dL: significantly above the standard reference range
[1]; EMO1L, 0.15 mg/kg single dose, at 30 min, 2 and 6 h
  Blood glucose, group-level 95% CI vs reference range 45–75 mg/dL: significantly above the standard reference range
[1]; EMO7H, 0.75 mg/kg daily for 7 days, at 2 h
  Blood glucose, group-level 95% CI vs reference range 45–75 mg/dL: significantly above the standard reference range
[2]; 0.15 mg/kg IV, over 1 h following administration
  Adverse effects: mild muscular tremors and salivation
[2]; 0.15 mg/kg IV
  Rumen contraction: 1.5 contractions/min
[2]; 0.75 mg/kg IV, 6 h post treatment, increasing from 72 bpm, normal on day 4
  Heart rate: 80 bpm
[2]; 0.75 mg/kg IV, 8 h after treatment
  Blood glucose concentration: 158 to 200 mg/dL
[2]; 0.75 mg/kg IV, by 24 h (within the normal range)
  Blood glucose concentration: 61 mg/dL
[2]; 0.75 mg/kg IV
  Rumen contraction: 2 contractions/min
[2]; 0.15 and 0.75 mg/kg IV
  Temperature and respiratory rates: not affected

## NCCS[As](SCCN)c1ccc(Nc2nc(N)nc(N)n2)cc1 [melarsomine]
[3]
  MTT reduction, worms recovered: no intact worms were recovered
[1]; MRSM, 4 mg/kg every other day for 3 days, at 5 and 30 min and 2 h
  Blood glucose, group-level 95% CI vs reference range 45–75 mg/dL: significantly above the standard reference range
[4]; 4 mg/kg every other day for 3 days, all post-treatment timepoints, P <0.05
  Cumulative pathology scores of worm sections: significantly higher pathology scores than PCBO
[4]; [5]
  Cumulative histopathological worm score, mixed-effects coefficient (SE) vs placebo: 8.00 (2.01)
  Cumulative histopathological worm score, mixed-effects coefficient (SE) vs pre-treatment (day 1): 9.45 (1.81)
  Degenerate nodules (no parasite sections or only cuticular fragments), of three nodules: 1
  Mean histopathological score, cuticle: 3.00
  Mean histopathological score, gut: 3.33
  Mean histopathological score, hypodermis: 3.33
  Mean histopathological score, longitudinal muscle: 2.67
  Mean histopathological score, pseudocoleomic cavity: 3.33
[4]; [6]
  Cumulative histopathological worm score, mixed-effects coefficient (SE) vs placebo: 7.31 (2.41)
  Cumulative histopathological worm score, mixed-effects coefficient (SE) vs pre-treatment (day 1): 8.12 (1.81)
  Degenerate nodules (no parasite sections or only cuticular fragments), of three nodules: 2
  Mean histopathological score, cuticle: 3.33
  Mean histopathological score, gut: 3.00
  Mean histopathological score, hypodermis: 3.00
  Mean histopathological score, longitudinal muscle: 3.00
  Mean histopathological score, pseudocoleomic cavity: 3.33
[4]; [7]
  Cumulative histopathological worm score, mixed-effects coefficient (SE) vs placebo: 8.67 (2.97)
  Cumulative histopathological worm score, mixed-effects coefficient (SE) vs pre-treatment (day 1): 11.11 (1.81)
  Degenerate nodules (no parasite sections or only cuticular fragments), of three nodules: 3
  Mean histopathological score, cuticle: 4.00
  Mean histopathological score, gut: 4.00
  Mean histopathological score, hypodermis: 4.00
  Mean histopathological score, longitudinal muscle: 4.00
  Mean histopathological score, pseudocoleomic cavity: 4.00
[4]; day 290, animal B0435, degenerate nodule, no parasites
  Cumulative histopathological score, representative section: 16
